From the supplement of paper PMC10307832

How the values were obtained:
Assay in all cases: relative viability (nuclei count vs DMSO), 5 days (fraction); higher = more cells survive
FG-4592 + Luminespib = compound: Cc1nc(C(=O)NCC(=O)O)c(O)c2ccc(Oc3ccccc3)cc12 [FG-4592] + CCNC(=O)c1noc(-c2cc(C(C)C)c(O)cc2O)c1-c1ccc(CN2CCOCC2)cc1 [Luminespib] (partner 0.01 µM)
Outline: (§1)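 Relative viability divides the nuclei count in treated wells by that in vehicle wells. Lung cancer cell lines were seeded in 1536-well plates, dosed by pin tool the next day, and fixed and stained after 5 days in one step with final 0.05% Triton X-100, 1% formaldehyde and 1 ug/ml Hoechst. Dosing was a single drug or a fixed anchor-drug dose plus five library-drug doses (not always all listed) in √10 steps, and values are medians of duplicate plates imaged at 4×.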

FG-4592 + Lapatinib = compound: Cc1nc(C(=O)NCC(=O)O)c(O)c2ccc(Oc3ccccc3)cc12 [FG-4592] + CS(=O)(=O)CCNCc1ccc(-c2ccc3ncnc(Nc4ccc(OCc5cccc(F)c5)c(Cl)c4)c3c2)o1 [Lapatinib] (partner 2 µM)
Outline: as §1

FG-4592 + AZD7762 = compound: Cc1nc(C(=O)NCC(=O)O)c(O)c2ccc(Oc3ccccc3)cc12 [FG-4592] + NC(=O)Nc1cc(-c2cccc(F)c2)sc1C(=O)N[C@H]1CCCNC1 [AZD7762] (partner 0.2 µM)
Outline: as §1

IU1-47 + OSI-027 = compound: CC1=CC(=C(N1C2=CC=C(C=C2)Cl)C)C(=O)CN3CCCCC3 [IU1-47] + COc1cccc2cc(-c3nc([C@H]4CC[C@H](C(=O)O)CC4)n4ncnc(N)c34)[nH]c12 [OSI-027] (partner 0.5 µM)
Outline: as §1

Cell Line	relative viability (FG-4592 + Luminespib; first compound 0.08 µM)	relative viability (FG-4592 + Luminespib; first compound 0.253 µM)	relative viability (FG-4592 + Luminespib; first compound 0.8 µM)	relative viability (FG-4592 + Luminespib; first compound 2.53 µM)	relative viability (FG-4592 + Luminespib; first compound 8 µM)	relative viability (FG-4592 + Lapatinib; first compound 0.08 µM)	relative viability (FG-4592 + Lapatinib; first compound 0.253 µM)	relative viability (FG-4592 + Lapatinib; first compound 2.53 µM)	relative viability (FG-4592 + Lapatinib; first compound 8 µM)	relative viability (FG-4592 + AZD7762; first compound 2.53 µM)	relative viability (FG-4592 + AZD7762; first compound 8 µM)	relative viability (IU1-47 + OSI-027; first compound 0.08 µM)	relative viability (IU1-47 + OSI-027; first compound 0.253 µM)	relative viability (IU1-47 + OSI-027; first compound 0.8 µM)	relative viability (IU1-47 + OSI-027; first compound 8 µM)	relative viability (FG-4592 + Lapatinib; first compound 0.8 µM)	relative viability (FG-4592 + AZD7762; first compound 0.08 µM)	relative viability (FG-4592 + AZD7762; first compound 0.253 µM)	relative viability (FG-4592 + AZD7762; first compound 0.8 µM)	relative viability (IU1-47 + OSI-027; first compound 2.53 µM)
HARA	0.73	0.787	0.834	0.621	0.709	0.677	0.719	0.728	0.667	0.251	0.431	0.554	0.406	0.456	0.413					
HCC-15	0.403	0.371	0.26	0.302	0.253	0.883	0.706	0.871	0.944	1.18	1.25	0.709	0.722	0.685	0.616	0.852	1.29	1.25	1.14	0.388
HCC-44	1.05	1.01		0.934	1.05	0.99	0.948	0.96	0.96	1.06	0.997	0.403	0.483	0.593	0.389	0.835	0.993	1.01	1.16	0.434
HCC-827	0.643	0.587	0.702	0.657	0.591	0.192	0.192	0.18	0.22	0.184	0.22	0.944	0.895	0.85	0.543	0.193	0.23	0.173	0.326	0.889
HOP-62	0.88	0.871	0.993	0.902	0.962	0.939	1.09	0.997	1.01	0.472	0.529	0.918	0.93	0.901	0.712	1.06	0.501	0.509	0.476	0.771
LC-2-ad	0.961	0.885		0.932	0.926	0.913	0.915	0.904	1.05	0.817	0.83	0.86	0.81	0.75	0.787	0.94	0.912	0.833	0.831	0.546
LCLC-97TM1	0.763	0.728	0.854	0.695	0.797	1.13	1.12		0.791	0.132	0.315	0.62	0.551	0.531	0.513	0.716	0.255	0.173	0.274	0.583
LK-2	0.227	0.168		0.146	0.177	0.695	0.912	0.886	0.767	0.358	0.342	0.219	0.199	0.184	0.184	0.68	0.273	0.355		0.188
LOU-NH91	0.275	0.342	0.299	0.325	0.367	0.72	0.759	0.734	0.631	0.723	0.732	0.798	0.776	0.728	0.685	0.618	0.755	0.733	0.717	0.726
LU99A	0.287	0.254	0.294	0.234	0.279	0.964	0.93	0.96	0.83	0.381	0.346	0.246	0.303	0.337	0.317	0.801	0.37	0.387		0.298
LXF-289	0.65	0.675	0.712	0.596	0.711	0.93	0.881	0.946	0.945	1.08	1.34	0.913	0.768	0.811	0.736	0.937	1.12	1.01	1.27	0.591
NCI-H23	0.208	0.247	0.179	0.203	0.184	1.09	1.07	0.772	1.01	0.285	0.164	0.644	0.587	0.695	0.597	0.953	0.243	0.257	0.206	0.583
NCI-H322M	0.82	0.841	0.666	0.818	0.623	0.451	0.621	0.646	0.633	0.629	0.43	0.677	0.553	0.632	0.553	0.631		0.518	0.497	0.568
NCI-H358	0.311	0.36	0.426	0.395	0.238	0.501	0.413	0.437	0.453	0.502	0.458	0.889	1.15	1.04	0.82	0.497	0.44	0.502	0.55	0.676
NCI-H460	0.0351	0.0212	0.0354	0.0343	0.0187	0.923	0.768	0.94	1.1	0.725	0.668	0.795	0.737	0.835	0.505	1.05	0.698	0.583	0.462	0.822
NCI-H596	1.14	1.08	0.886	1.15	0.676	1.04	1.01	1.02	0.847	1.15	0.952	0.817	0.62	0.743	0.739		1.1	1.08		0.814
NCI-H647	0.183	0.181	0.174	0.201	0.109	1.13	1.01	1.08	1.04	0.422	0.532	0.744	0.605		0.478	1.23	0.431	0.429	0.367	0.7

Cell Line	relative viability (FG-4592 + Luminespib; first compound 0.08 µM)	relative viability (FG-4592 + Luminespib; first compound 0.253 µM)	relative viability (FG-4592 + Luminespib; first compound 0.8 µM)	relative viability (FG-4592 + Luminespib; first compound 2.53 µM)	relative viability (FG-4592 + Luminespib; first compound 8 µM)	relative viability (FG-4592 + Lapatinib; first compound 0.08 µM)	relative viability (FG-4592 + Lapatinib; first compound 0.253 µM)	relative viability (FG-4592 + Lapatinib; first compound 2.53 µM)	relative viability (FG-4592 + Lapatinib; first compound 8 µM)	relative viability (FG-4592 + AZD7762; first compound 2.53 µM)	relative viability (FG-4592 + AZD7762; first compound 8 µM)	relative viability (IU1-47 + OSI-027; first compound 0.08 µM)	relative viability (IU1-47 + OSI-027; first compound 0.253 µM)	relative viability (IU1-47 + OSI-027; first compound 0.8 µM)	relative viability (IU1-47 + OSI-027; first compound 8 µM)	relative viability (FG-4592 + Lapatinib; first compound 0.8 µM)	relative viability (FG-4592 + AZD7762; first compound 0.08 µM)	relative viability (FG-4592 + AZD7762; first compound 0.253 µM)	relative viability (FG-4592 + AZD7762; first compound 0.8 µM)	relative viability (IU1-47 + OSI-027; first compound 2.53 µM)
NCI-H650	0.766	0.797	0.597	0.746	0.713	0.633	1.03	0.728	0.802	1.04	0.755	0.507	0.55	0.487	0.441	0.744	1.06	1.03	1.09	0.482
NCI-H727	0.341	0.237	0.335	1.02	0.326	0.632	0.809	0.754	0.863	0.563	0.482	0.634	0.659	0.724	0.454	0.742	0.51	0.555	0.763	0.525
NCI-H838	0.324	0.179	0.263	0.386	0.272	0.976	1.02	0.822	0.966	0.981	0.916	0.405	0.424	0.428	0.447	0.901	0.899	0.888	0.976	0.417
NCI-H1355	0.808	0.67	0.465	0.681	0.676	1.03	0.939	0.955	0.823	0.809	0.723	0.396	0.427	0.402	0.395		0.907	0.669		
NCI-H1395	0.34	0.685	0.583	0.61	0.753	1.19	0.935	0.967	0.662	0.385	0.396	0.58	0.621	0.665	0.554		0.446	0.396	0.413	0.387
NCI-H1437	1.21	1.11	1.27	0.984	0.95	0.883	0.817	0.677	0.499	0.995	1.08	0.873	0.886	0.92	0.815	0.8	1.19	1.08	1.17	0.854
NCI-H1651	0.9	0.767	0.789	0.836	0.867	0.744	0.883	0.826	0.706	0.442	0.455	0.651	0.717	0.726	0.622	0.741	0.474	0.455	0.433	0.671
NCI-H1666	0.966	0.965	0.96	1	0.95	0.617	0.519	0.519	0.456	0.9	0.875	0.914	0.86	0.901	0.817	0.485	0.81	0.764	0.899	0.879
NCI-H1734	0.183	0.185	0.177	0.192	0.178	0.947	0.886	0.973	1.02	0.547	0.427	0.703	0.659	0.662	0.565	0.915	0.63	0.474	0.456	
NCI-H1755	0.417	0.295	0.331	0.492	0.517	0.935	1.01	1.02	0.984	0.491	0.446	0.759	0.876	0.777	0.686	0.945	0.408	0.621	0.361	0.729
NCI-H1792	0.36	0.492	0.454	0.413	0.478	0.859	0.785	0.86	0.849	0.834	0.654	0.816	0.771	0.879	0.691	0.908	0.81	0.637		0.566
NCI-H1793	0.155	0.227		0.157	0.185	0.592	0.468	0.646	0.62	0.696	0.37	0.245	0.25	0.37	0.286			0.48		
NCI-H1915	0.721	0.828	0.911	0.781	0.697	0.956	0.933	0.943	1.04	0.637	0.669	0.614	0.626	0.599	0.581	0.931	0.672	0.652	0.715	
NCI-H1944	0.762	0.716	0.728	0.891	0.763	0.712	0.759	0.71	0.768	0.509	0.471	0.401	0.357	0.411	0.376	0.576	0.479	0.675	0.368	0.444
NCI-H1975	0.305	0.244	0.2	0.187	0.0934	0.801	0.788	0.759	0.697	0.712	0.709	0.69	0.817	0.779	0.531	0.831	0.782	0.644	0.684	0.94
NCI-H1993	0.806	0.868	0.771	0.984	0.869	0.848	0.885	0.929	0.719	0.892	0.56	0.492	0.586	0.498	0.567	0.744	0.769	0.723		0.498
